From patent US10208074B2, “Pyrazole compounds and method for making and using the compounds” (Rigel Pharmaceuticals, Inc., priority 2015, dated 2019)
Counter-ions that a name gives are not always drawn. Like-named read-outs stand apart in the source and are kept apart here.

Assays:
IL-23 (p19/p40) = experiment: IL23-p19 ELISA, Dendritic, LPS (compound screening using DC cells); format: cell-based, Human
Procedure, shortened: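 Human PBMC-derived dendritic cells (7 d GM-CSF 100 ng/ml + IL-4 20 ng/ml), primed 24 h with IFNγ 50 ng/ml, pre-incubated 1 h with compound, then stimulated 18 h with LPS 1 μg/ml. Supernatant IL-23 measured by p19-capture/p40-detection chemiluminescent ELISA; CellTiter Glo checks cytotoxicity.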

IL-23p19 = experiment: LPS induced IL23p19 in THP-1 cells (with IFNγ primed) assay; format: cell-based, Human
Procedure, shortened: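 THP-1 cells primed ~18 h with IFNγ (50 ng/mL), pre-incubated 1 h with compound at 37 °C, then stimulated 18 h with LPS (1 ug/mL final). Supernatant IL-23p19 measured by sandwich ELISA with chemiluminescent read-out; EC50 from curve fitting. Toxicity checked on the remaining cells by Cell Titer Glo.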

[1] = Homo sapiens, 18 h, PBMC-derived DC cells, IFNγ primed, LPS 1 μg/ml, 18 hours, 10 pt, read-out: IL23-p19 ELISA, Dendritic, LPS, 10 pt, EC50
[2] = Homo sapiens, THP-1, 18 h, THP-1 cells, IFNγ primed, LPS 1 ug/mL, 18 hours, 10 pt, read-out: IL23-p19 ELISA, THP1-IFNy, LPS, 10 pt EC50
[3] = PBMC-derived DC cells, IFNγ primed, LPS 1 μg/ml, 18 hours, 10 pt, read-out: IL23-p19 ELISA, Dendritic, LPS, 10 pt, EC50
[4] = THP-1 cells, IFNγ primed, LPS 1 ug/mL, 18 hours, 10 pt, read-out: IL23-p19 ELISA, THP1-IFNy, LPS, 10 pt EC50

| SMILES | EC50 (IL-23 (p19/p40); [1]) [µM] | EC50 (IL-23p19; [2]) [µM] | further results |
| --- | --- | --- | --- |
| CCO[C@H]1C[C@H](n2cc(NC(=O)c3csc(-c4cn[nH]c4)n3)c(-c3ccccn3)n2)C1 [II-12, N-(1-((1,3-trans)-3-ethoxycyclobutyl)-3-(pyridin-2-yl)-1H-pyrazol-4-yl)-2-(1H-pyrazol-4-yl)thiazole-4-carboxamide] | 0.0616 | 0.135 | – |
| CCO[C@H]1C[C@@H](n2cc(NC(=O)c3csc(-c4cnn(C)c4)n3)c(-c3ccccn3)n2)C1 [II-13, N-(1-((1,3-cis)-3-ethoxycyclobutyl)-3-(pyridin-2-yl)-1H-pyrazol-4-yl)-2-(1-methyl-1H-pyrazol-4-yl)thiazole-4-carboxamide] | 10.4 | 4.8 | – |
| O=C(Nc1cn([C@H]2C[C@@H](O)C2)nc1-c1ccccn1)c1csc(-c2cn[nH]c2)n1 [II-14, N-(1-((1,3-cis)-3-hydroxycyclobutyl)-3-(pyridin-2-yl)-1H-pyrazol-4-yl)-2-(1H-pyrazol-4-yl)thiazole-4-carboxamide] | 0.0057 | 0.0434 | – |
| CN(C)[C@H]1C[C@@H](n2cc(NC(=O)c3csc(-c4cn[nH]c4)n3)c(-c3ccccn3)n2)C1 [II-15, N-(1-((1s,3s)-3-(dimethylamino)cyclobutyl)-3-(pyridin-2-yl)-1H-pyrazol-4-yl)-2-(1H-pyrazol-4-yl)thiazole-4-carboxamide] | 0.0096 | 0.0064 | – |
| CCO[C@H]1C[C@@H](n2cc(NC(=O)c3csc(-c4cnn(COP(=O)(O)O)c4)n3)c(-c3ccccn3)n2)C1 [II-16, (4-(4-((1-((1,3-cis)-3-ethoxycyclobutyl)-3-(pyridin-2-yl)-1H-pyrazol-4-yl)carbamoyl)thiazol-2-yl)-1H-pyrazol-1-yl)methyl phosphate bis-sodium salt] | – | – | EC50 (IL-23 (p19/p40); PBMC-derived DC cells, IFNγ primed, LPS 1 μg/ml, 18 hours, 10 pt, phosphate bis-sodium salt, read-out: IL23-p19 ELISA, Dendritic, LPS, 10 pt, EC50): 0.525 µM; EC50 (IL-23p19; THP-1 cells, IFNγ primed, LPS 1 ug/mL, 18 hours, 10 pt, phosphate bis-sodium salt, read-out: IL23-p19 ELISA, THP1-IFNy, LPS, 10 pt EC50): 0.121 µM |
| CCOCCn1cc(NC(=O)c2csc(-c3cn[nH]c3)n2)c(-c2ccccn2)n1 [II-18, N-(1-(2-ethoxyethyl)-3-(pyridin-2-yl)-1H-pyrazol-4-yl)-2-(1H-pyrazol-4-yl)thiazole-4-carboxamide, formic acid salt] | – | – | EC50 (IL-23 (p19/p40); PBMC-derived DC cells, IFNγ primed, LPS 1 μg/ml, 18 hours, 10 pt, formic acid salt, read-out: IL23-p19 ELISA, Dendritic, LPS, 10 pt, EC50): 0.0314 µM; EC50 (IL-23p19; THP-1 cells, IFNγ primed, LPS 1 ug/mL, 18 hours, 10 pt, formic acid salt, read-out: IL23-p19 ELISA, THP1-IFNy, LPS, 10 pt EC50): 0.301 µM |
| CCOCCn1cc(NC(=O)c2csc(-c3cn[nH]c3C(F)(F)F)n2)c(-c2ccccn2)n1 [II-19, N-(1-(2-ethoxyethyl)-3-(pyridin-2-yl)-1H-pyrazol-4-yl)-2-(5-(trifluoromethyl)-1H-pyrazol-4-yl)thiazole-4-carboxamide, formic acid salt] | 3.51 | 4.01 | – |
| CCOCCn1cc(NC(=O)c2csc(-c3c[nH]nc3C)n2)c(-c2ccccn2)n1 [II-21, N-(1-(2-ethoxyethyl)-3-(pyridin-2-yl)-1H-pyrazol-4-yl)-2-(3-methyl-1H-pyrazol-4-yl)thiazole-4-carboxamide, formic acid salt] | 0.569 | 0.315 | – |
| CCOCCn1cc(NC(=O)c2csc(-c3c(C)n[nH]c3C)n2)c(-c2ccccn2)n1 [II-23, 2-(3,5-dimethyl-1H-pyrazol-4-yl)-N-(1-(2-ethoxyethyl)-3-(pyridin-2-yl)-1H-pyrazol-4-yl)thiazole-4-carboxamide, formic acid salt] | 16.3 | 4.76 | – |
| CCOCCn1cc(NC(=O)c2csc(-c3cn[nH]c3)n2)c(-c2ccccn2)n1 [II-25, N-(1-(2-ethoxyethyl)-3-(pyridin-2-yl)-1H-pyrazol-4-yl)-2-(1H-pyrazol-4-yl)thiazole-4-carboxamide] | – | – | EC50 (IL-23 (p19/p40); [3]): 0.17 µM; EC50 (IL-23p19; [4]): 0.146 µM |
| Cn1cc(NC(=O)c2csc(-c3cn[nH]c3)n2)c(-c2ccccn2)n1 [II-26, N-(1-methyl-3-(pyridin-2-yl)-1H-pyrazol-4-yl)-2-(1H-pyrazol-4-yl)thiazole-4-carboxamide] | 0.113 | 0.0771 | – |
| Cc1n[nH]cc1-c1nc(C(=O)Nc2cn(C)nc2-c2ccccn2)cs1 [II-27, 2-(3-methyl-1H-pyrazol-4-yl)-N-(1-methyl-3-(pyridin-2-yl)-1H-pyrazol-4-yl)thiazole-4-carboxamide] | 0.331 | 0.0741 | – |
| COCCn1cc(NC(=O)c2csc(-c3cn[nH]c3)n2)c(-c2ccccn2)n1 [II-28, N-(1-(2-methoxyethyl)-3-(pyridin-2-yl)-1H-pyrazol-4-yl)-2-(1H-pyrazol-4-yl)thiazole-4-carboxamide] | 0.063 | 0.276 | – |
| COCCn1cc(NC(=O)c2csc(-c3c[nH]nc3C)n2)c(-c2ccccn2)n1 [II-29, N-(1-(2-methoxyethyl)-3-(pyridin-2-yl)-1H-pyrazol-4-yl)-2-(3-methyl-1H-pyrazol-4-yl)thiazole-4-carboxamide, formic acid salt] | 0.248 | 0.135 | – |
| CCOCCn1cc(NC(=O)c2csc(-c3c[nH]nc3C)n2)c(-c2ccccn2)n1 [II-31, N-(1-(2-ethoxyethyl)-3-(pyridin-2-yl)-1H-pyrazol-4-yl)-2-(3-methyl-1H-pyrazol-4-yl)thiazole-4-carboxamide] | – | – | EC50 (IL-23 (p19/p40); [3]): 0.799 µM; EC50 (IL-23p19; [4]): 0.17 µM |
| O=C(Nc1c[nH]nc1-c1ccccn1)c1csc(-c2cn[nH]c2)n1 [II-32, 2-(1H-pyrazol-4-yl)-N-(3-(pyridin-2-yl)-1H-pyrazol-4-yl)thiazole-4-carboxamide formic acid salt] | 0.191 | 0.361 | – |
| O=C(Nc1cn(C2COC2)nc1-c1ccccn1)c1csc(-c2cn[nH]c2)n1 [II-34, N-(1-(oxetan-3-yl)-3-(pyridin-2-yl)-1H-pyrazol-4-yl)-2-(1H-pyrazol-4-yl)thiazole-4-carboxamide] | 0.0557 | 0.0861 | – |
| Cn1cc(NC(=O)c2csc(-c3cnn(COP(=O)(O)O)c3)n2)c(-c2ccccn2)n1 [II-35, (4-(4-((1-methyl-3-(pyridin-2-yl)-1H-pyrazol-4-yl)carbamoyl)thiazol-2-yl)-1H-pyrazol-1-yl)methyl dihydrogen phosphate] | 0.292 | 0.206 | – |
| Cn1cc(NC(=O)c2csc(-c3cnn(COP(=O)(O)O)c3)n2)c(-c2ccccn2)n1 [II-36, Sodium (4-(4-((1-methyl-3-(pyridin-2-yl)-1H-pyrazol-4-yl)carbamoyl)thiazol-2-yl)-1H-pyrazol-1-yl)methyl phosphate] | – | – | EC50 (IL-23 (p19/p40); PBMC-derived DC cells, IFNγ primed, LPS 1 μg/ml, 18 hours, 10 pt, phosphate, read-out: IL23-p19 ELISA, Dendritic, LPS, 10 pt, EC50): 0.241 µM; EC50 (IL-23p19; THP-1 cells, IFNγ primed, LPS 1 ug/mL, 18 hours, 10 pt, phosphate, read-out: IL23-p19 ELISA, THP1-IFNy, LPS, 10 pt EC50): 0.165 µM |
| COCCOCCn1cc(NC(=O)c2csc(-c3cn[nH]c3)n2)c(-c2ccccn2)n1 [II-37, N-(1-(2-(2-methoxyethoxy)ethyl)-3-(pyridin-2-yl)-1H-pyrazol-4-yl)-2-(1H-pyrazol-4-yl)thiazole-4-carboxamide] | 0.193 | 0.129 | – |
| Cn1cc(NC(=O)c2csc(-c3cnn(COP(=O)(O)O)c3)n2)c(-c2ccccn2)n1 [II-38, Potassium (4-(4-((1-methyl-3-(pyridin-2-yl)-1H-pyrazol-4-yl)carbamoyl)thiazol-2-yl)-1H-pyrazol-1-yl)methyl phosphate] | – | – | EC50 (IL-23 (p19/p40); Homo sapiens, 18 h, read-out: IL23-p19 ELISA, Dendritic, LPS, 10 pt, EC50 (μM)): 0.771 µM; EC50 (IL-23p19; Homo sapiens, THP-1, 18 h, read-out: IL23-p19 ELISA, THP1-IFNy, LPS, 10 pt EC50 (μM)): 0.505 µM |
| COCCOCCn1cc(NC(=O)c2csc(-c3c[nH]nc3C)n2)c(-c2ccccn2)n1 [II-39, N-(1-(2-(2-methoxyethoxy)ethyl)-3-(pyridin-2-yl)-1H-pyrazol-4-yl)-2-(3-methyl-1H-pyrazol-4-yl)thiazole-4-carboxamide] | 0.178 | 0.167 | – |
| Cc1n[nH]cc1-c1nc(C(=O)Nc2cn(C3COC3)nc2-c2ccccn2)cs1 [II-41, 2-(3-methyl-1H-pyrazol-4-yl)-N-(1-(oxetan-3-yl)-3-(pyridin-2-yl)-1H-pyrazol-4-yl)thiazole-4-carboxamide, formic acid salt] | 0.0188 | 0.0413 | – |
| O=C(Nc1cn(C2CCOC2)nc1-c1ccccn1)c1csc(-c2cn[nH]c2)n1 (centres unmarked) [II-43, 2-(1H-pyrazol-4-yl)-N-(3-(pyridin-2-yl)-1-(tetrahydrofuran-3-yl)-1H-pyrazol-4-yl)thiazole-4-carboxamide formic acid salt] | 0.0502 | 0.0278 | – |
| O=C(Nc1cn(CC2CCOCC2)nc1-c1ccccn1)c1csc(-c2cn[nH]c2)n1 [II-45, 2-(1H-pyrazol-4-yl)-N-(3-(pyridin-2-yl)-1-((tetrahydro-2H-pyran-4-yl)methyl)-1H-pyrazol-4-yl)thiazole-4-carboxamide formic acid salt] | 0.129 | 0.129 | – |
